Among the data in the SangsterLogP compilation are logP and logD values, retold here.

Test in the first data set: not given
Settings: not given
In general, logP refers to the decadic logarithm of the partition coefficient of the neutral form, usually between octanol and water. For `CCCCC(=O)O`, the logP is 1.39.

Regarding `O=C(O)c1cc(I)cc(I)c1O`, the logP is 4.2.

For the compound `CCCCCCCC(=O)O`, the logP came out at 3.05.

Turning to `Oc1ccc(Cl)cc1Cc1cc(Cl)ccc1O`, the logP came out at 4.26.

In turn, `O=C(O)c1cccnc1` yielded a logP of -0.46.

`O=C(Nc1ccccc1)c1ccccc1O`: the logP was 3.25.

Turning to `C=CCCCCCCCCC(=O)O`, the logP turned out to be 3.86.

`CCC(=O)O` returned a log partition coefficient (logP) of 0.32.

The nature of a further data set: method code SF, from DOI: 10.1002/tera.1420200312, PMID: 120615. The settings on record: pH 7.4.
By logD is commonly meant lipophilicity at a set pH, counting ionised and neutral species. Low values mean lower lipophilicity, high ones higher lipophilicity. `CC/C(=C(/CC)c1ccc(O)cc1)c1ccc(O)cc1` registered a logD of 4.76.

On to `Cc1ccccc1O`, for which the logD is 1.93.

With `Cc1cc(O)c(C(C)C)cc1Cl`, the logD is 3.92.
